According to US9296755B2, “3,4-dihydro-1H-pyrimido[1,6-a]pyrimidin-6(2H)-one compounds and their therapeutic applications” (GlaxoSmithKline Intellectual Property Development Limited, priority 2013, dated 2016):

How the values were obtained:
[1] = test system: rat EAE model; experiment: Rat experimental autoimmune encephalomyelitis (EAE) model, preventive treatment; assay type: in vivo; conditions: MBP immunization, administered day 0 to day 22
Protocol: (§1) A further study was carried out to study the impact of Lp-PLA2 inhibitors on modulating M1/M2 imbalance. In this study, rats were induced to develop experimental autoimmune encephalomyelitis (EAE) by immunization with myelin basic protein (MBP) antigen and treated with a known Lp-PLA2 inhibitor: 5-((9-Methoxy-4-oxo-6,7-dihydro-4H-pyrimido[6,1-a]isoquinolin-2-yl)oxy)-2-(3-(trifluoromethyl)phenoxy)benzonitrile (See PCT application no. PCT/CN2011/001597). In this preventive treatment model, the compound was administered at day 0 (day of immunization) and continued to administer until day 22. The study lasted for 25 days. Rats were subsequently monitored for symptoms of EAE. Rats were immunized with MBP to develop EAE and symptoms were monitored daily. Plasma Lp-PLA2 activity, OxLDL, and LysoPC concentration were determined at different time points through the course of EAE.

[2] = target: T1, Lp-PLA2 (Rattus norvegicus, UniProt A6JJ35); experiment: Plasma Lp-PLA2 activity and LysoPC in rat EAE plasma; assay type: in vivo
T1 construct: from tissue; host or cells: plasma of EAE rats
T1 sequence (A6JJ35 22-440): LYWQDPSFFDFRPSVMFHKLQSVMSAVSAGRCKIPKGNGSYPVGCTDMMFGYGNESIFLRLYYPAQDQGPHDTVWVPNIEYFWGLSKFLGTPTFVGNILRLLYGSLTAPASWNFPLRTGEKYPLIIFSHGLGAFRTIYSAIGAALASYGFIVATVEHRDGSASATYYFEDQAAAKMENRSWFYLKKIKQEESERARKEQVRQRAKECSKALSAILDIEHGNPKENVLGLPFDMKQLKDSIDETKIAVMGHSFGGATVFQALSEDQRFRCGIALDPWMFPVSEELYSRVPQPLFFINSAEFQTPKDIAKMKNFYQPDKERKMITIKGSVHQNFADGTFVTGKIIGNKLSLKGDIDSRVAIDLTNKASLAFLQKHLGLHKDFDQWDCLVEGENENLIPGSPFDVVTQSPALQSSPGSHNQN
Protocol: as §1

[3] = test system: Lp-PLA2; experiment: as above; assay type: in vivo
Protocol: as §1

[4] = test system: proinflammatory (M1) and anti-inflammatory (M2) markers; experiment: Ex vivo analysis of M1 and M2 markers in macrophages of EAE rats by realtime PCR; set-up: species or system rat; conditions: splenic macrophages day 13 post MBP-immunization and CNS infiltrating macrophages
Protocol: Ex vivo analysis of proinflammatory (M1) and anti-inflammatory (M2) markers in control and compound treated EAE rats. Splenic macrophages were harvested at day 13 post MBP-immunization and assayed for expression of a variety of markers by realtime PCR. CNS infiltrating cells were harvested and macrophages were analyzed for expression of M1 and M2 markers by realtime PCR.

[5] = target: Recombinant human PLA2 VIIB (Homo sapiens, UniProt Q99487); experiment: PLA2 VIIB assay; assay type: biochemical
From the text: PLA2 VIIB (also known as Novel Serine Dependent Lipase, NSDL) is a serine hydrolase with 40% amino acid identity with human Lp-PLA2. Sequence comparisons indicate that the PLA VIIB active site catalytic triad positions are similar to those of Lp-PLA2. Similar to Lp-PLA2, it is capable of hydrolyzing oxidatively modified phospholipids and may be assayed using known Lp-PLA2 substrates.
Upon cleavage by a phopholipase, […] liberates a fluorescent Bodipy group. Recombinant human PLA2 VIIB is used as the phospholipase source in this assay, and compounds are screened to test their degree of inhibition in this assay. The assay is used to determine the degree of selectivity of the testing compounds between PLA2 VIIB and Lp-PLA2.
The PLA2 VIIB assay was applied as an unquenched 10 μL assay. The source plate containing the compounds is prepared by making 1:3 (by volume) serial dilution of the compounds with pure DMSO on 384-well microplate. 0.01 μL of compounds on the compound source plate were transferred into 384 well Greiner 784076 (black) plates by ECHO liquid dispenser. 5 μL of Novel Serine Dependent Lipase (NSDL) enzyme (5 nM NSDL in assay buffer of 50 mM HEPES, pH 7.4, 150 mM NaCl, 1 mM CHAPS) was added to each well. […] Plates were kinetic read by starting read immediately after PED6 addition at ex: 480/em:540 using ViewLux microplate reader or Envision spectrofluorimeters. […]

SMILES | clinical disease (EAE) [1] | Lp-PLA2 activity in rat EAE plasma [2] | LysoPC levels in rat EAE plasma [3] | M1 markers [4] | M2 markers [4] | selectivity between human recombinant Lp-PLA2 and PLA2 VIIB [5] [fold]
COc1ccc2c(c1)CCn1c-2cc(Oc2ccc(Oc3cccc(C(F)(F)F)c3)c(C#N)c2)nc1=O [5-((9-Methoxy-4-oxo-6,7-dihydro-4H-pyrimido[6,1-a]isoquinolin-2-yl)oxy)-2-(3-(trifluoromethyl)phenoxy)benzonitrile] | reduction in clinical disease | decreased | decreased | decrease | increase | 
Cc1ccccc1CN1CCCn2c1cc(OCc1ccc(F)c(F)c1)nc2=O [Example E7, 8-((3,4-difluorobenzyl)oxy)-1-(2-methylbenzyl)-3,4-dihydro-1H-pyrimdo[1,6-a]pyrimidin-6(2H)-one] |  |  |  |  |  | ≤ 100
